Calls of active or inactive are those of the source. The calls are words filed in the database; no cut-off is given here.
Experiments:
Salmon testes DNA [1] = test: Binding affinity to double stranded salmon sperm DNA assessed as increase in DNA oxidation level by measuring net change in absorbance at 10 uM incubated for 1 hr by UV based spectroscopic method; type: nucleic-acid assay; conditions: Salmo salar
Jurkat [2] = test: Induction of morphological changes in human Jurkat cells assessed as change in cell shape incubated for 24 hrs by Hoechst 33258 and propidium iodide staining based fluorescence microscopy; type: functional
MDA-MB-231 = test: Anticancer activity against human MDA-MB-231 cells assessed as cell growth inhibition incubated for 72 hrs by MTT assay; type: functional
Lymphocyte [3] = test: Induction of DNA damage in mitogen activated human peripheral blood lymphocytes assessed as tail DNA at 0.5 uM incubated for 24 hrs by alkaline Comet assay; type: toxicity, cell-based
HCT-116 [4] = test: Induction of DNA damage in human HCT-116 cell lysate assessed as olive tail moment at 0.5 uM incubated for 2 hrs in dark by Comet assay; type: functional
Jurkat [5] = test: Anticancer activity against human Jurkat cells assessed as cell growth inhibition incubated for 72 hrs by MTT assay; type: functional
Salmon testes DNA [6] = test: Displacement of methyl green from salmon sperm DNA at 10 uM measured after 2 hrs by fluorescence plate reader method relative to control; type: nucleic-acid assay; conditions: Salmo salar
Jurkat [7] = test: Induction of morphological changes in human Jurkat cells assessed as chromatin fragmentation incubated for 24 hrs by Hoechst 33258 and propidium iodide staining based fluorescence microscopy; type: functional, cell-based
[8] = Cytotoxicity against mitogen activated human peripheral blood lymphocytes assessed as cell growth inhibition incubated for 48 hrs by MTT assay; type: toxicity, cell-based, Lymphocyte
Jurkat [9] = test: Induction of morphological changes in human Jurkat cells assessed as chromatin condensation incubated for 24 hrs by Hoechst 33258 and propidium iodide staining based fluorescence microscopy; type: functional, cell-based
HCT-116 [10] = test: Anticancer activity against human HCT-116 cells assessed as cell growth inhibition incubated for 72 hrs by MTT assay; type: functional
HCT-116 [11] = test: Induction of DNA damage in human HCT-116 cells assessed as tail DNA at 0.5 uM incubated for 2 hrs by alkaline Comet assay; type: functional
Jurkat [12] = test: Induction of DNA damage in human Jurkat cells assessed as tail DNA at 0.5 uM incubated for 24 hrs by alkaline Comet assay; type: functional
Jurkat [13] = test: Induction of apoptosis in human Jurkat cells assessed as decrease in Bcl-2 level at 0.5 uM for 24 hrs by Western blot analysis; type: functional, cell-based
KB 3-1 = test: Anticancer activity against human KB 3-1 cells assessed as cell growth inhibition incubated for 72 hrs by MTT assay; type: functional
HCT-116 [14] = test: Induction of DNA damage in human HCT-116 cell lysate assessed as tail DNA at 0.5 uM incubated for 2 hrs in dark by Comet assay; type: functional
Jurkat [15] = test: Induction of apoptosis in human Jurkat cells assessed as increase in cleaved capase-3 level at 0.5 uM for 24 hrs by Western blot analysis; type: functional, cell-based
Jurkat [16] = test: Induction of morphological changes in human Jurkat cells assessed as plasma membrane blebbing incubated for 24 hrs by Hoechst 33258 and propidium iodide staining based fluorescence microscopy; type: functional, cell-based
U-251 = test: Anticancer activity against human U-251 cells assessed as cell growth inhibition incubated for 72 hrs by MTT assay; type: functional
[17] = Anticancer activity against human HCT116-p53-null cells assessed as cell growth inhibition incubated for 72 hrs by MTT assay; type: functional
MCF7 = test: Anticancer activity against human MCF7 cells assessed as cell growth inhibition incubated for 72 hrs by MTT assay; type: functional
Jurkat [18] = test: Induction of DNA damage in human Jurkat cells assessed as olive tail moment at 0.5 uM incubated for 24 hrs by alkaline Comet assay; type: functional
HeLa = test: Anticancer activity against human HeLa cells assessed as cell growth inhibition incubated for 72 hrs by MTT assay; type: functional
Jurkat [19] = test: Induction of apoptosis in human Jurkat cells assessed as decrease in Endo-G protein level at 0.5 uM for 24 hrs by Western blot analysis; type: functional, cell-based
Jurkat [20] = test: Induction of morphological changes in human Jurkat cells assessed as chromatin topology incubated for 24 hrs by Hoechst 33258 and propidium iodide staining based fluorescence microscopy; type: functional, cell-based
[21] = Cytotoxicity against mitogen activated human peripheral blood lymphocytes assessed as cell growth inhibition incubated for 24 hrs by MTT assay; type: toxicity, cell-based, Lymphocyte
Jurkat [22] = test: Induction of apoptosis in human Jurkat cells assessed as increase in Bax level at 0.5 uM for 24 hrs by Western blot analysis; type: functional, cell-based
HCT-116 [23] = test: Induction of DNA damage in human HCT-116 cells assessed as olive tail moment at 0.5 uM incubated for 2 hrs by alkaline Comet assay; type: functional
Lymphocyte [24] = test: Induction of DNA damage in mitogen activated human peripheral blood lymphocytes assessed as olive tail moment at 0.5 uM incubated for 24 hrs by alkaline Comet assay; type: toxicity, cell-based
SK-OV-3 = test: Anticancer activity against human SK-OV-3 cells assessed as cell growth inhibition incubated for 72 hrs by MTT assay; type: functional
[25] = Cytotoxicity against human HaCaT cells assessed as cell growth inhibition incubated for 72 hrs by MTT assay; type: toxicity, cell-based
A549 = test: Anticancer activity against human A549 cells assessed as cell growth inhibition incubated for 72 hrs by MTT assay; type: functional

**Q.** For `COc1cccc2c1C(=O)c1c(O)c3c(c(O)c1C2=O)C[C@@](O)(C(=O)CO)C[C@@H]3O[C@H]1C[C@H](N)[C@H](O)[C@H](C)O1` [DOXORUBICIN], which Activity (Salmon testes DNA [1]) is on record?
**A.** Active

**Q.** And the Activity (Jurkat [2])?
**A.** Active

**Q.** What about the GI50 (MDA-MB-231) of the same compound?
**A.** 5950 nM

**Q.** What about the Activity (Lymphocyte [3]) of the same compound?
**A.** 25.9%

**Q.** And the Activity (HCT-116 [4])?
**A.** 1.95%

**Q.** And the GI50 (Jurkat [5])?
**A.** 430 nM

**Q.** What about the Activity (Salmon testes DNA [6]) of the same compound?
**A.** 68.7%

**Q.** What about the Activity (Jurkat [7]) of the same compound?
**A.** Active

**Q.** What about the GI50 at 48 h [8] of the same compound?
**A.** 500 nM

**Q.** What about the Activity (Jurkat [9]) of the same compound?
**A.** Active

**Q.** And the GI50 (HCT-116 [10])?
**A.** 570 nM

**Q.** And the Activity (HCT-116 [11])?
**A.** 18%

**Q.** And the Activity (Jurkat [12])?
**A.** 40.9%

**Q.** What about the Activity (Jurkat [13]) of the same compound?
**A.** Active

**Q.** And the GI50 (KB 3-1)?
**A.** 980 nM

**Q.** What about the Activity (HCT-116 [14]) of the same compound?
**A.** 12.6%

**Q.** What about the Activity (Jurkat [15]) of the same compound?
**A.** Active

**Q.** And the Activity (Jurkat [16])?
**A.** Active

**Q.** And the GI50 (U-251)?
**A.** 890 nM

**Q.** And the GI50 [17]?
**A.** 2800 nM

**Q.** What about the GI50 (MCF7) of the same compound?
**A.** 750 nM

**Q.** And the Activity (Jurkat [18])?
**A.** 12.23%

**Q.** And the GI50 (HeLa)?
**A.** 700 nM

**Q.** What about the Activity (Jurkat [19]) of the same compound?
**A.** Active

**Q.** What about the Activity (Jurkat [20]) of the same compound?
**A.** Active

**Q.** What about the GI50 at 24 h [21] of the same compound?
**A.** 2900 nM

**Q.** What about the Activity (Jurkat [22]) of the same compound?
**A.** Active

**Q.** And the Activity (HCT-116 [23])?
**A.** 1%

**Q.** And the Activity (Lymphocyte [24])?
**A.** 8.12%

**Q.** And the GI50 (SK-OV-3)?
**A.** 9100 nM

**Q.** What about the GI50 at 72 h [25] of the same compound?
**A.** 640 nM

**Q.** What about the GI50 (A549) of the same compound?
**A.** 970 nM
